Results published in US10882813B2, “Method for the synthesis of ferric oraganic compounds” (Biophore India Pharmaceuticals Pvt. Ltd., priority 2014, dated 2021).
Where “and” joins values, the source holds several entries; their conditions need not be identical. Identical values can stand only once.

Assays:
[1] = BET active (specific) surface area analysis, nitrogen adsorbate; assay type: physicochemical; conditions: for Specific surface area: final product of the synthesis, amorphous powder dried under vacuum at 25-30° C.; for Surface area of the sample: after one blending with water and acetone mixture and drying under vacuum at 50-55° C.
Description: The analysis of BET is according to the method described as: out gassing a portion of the test sample, about 100 mg at 90° C. for 1 hour at ambient pressure using nitrogen as the adsorbate gas.

[2] = Intrinsic dissolution rate; assay type: physicochemical; conditions: final product of the synthesis, amorphous powder

## O=C([O-])CC(O)(CC(=O)[O-])C(=O)[O-].[Fe+3] [Ferric Citrate, Iron (III) 2-hydroxypropane-1,2,3-tricarboxylate, reference compound]
[1]; starting Ferric Citrate before treatment with water and acetone mixture
  surface area: 30.0 Sq.m/g and 28.6 Sq.m/g

## Ferric Citrate [Example III]
[1]
  Specific surface area: 12.0 sq.m/g

## Ferric Citrate [Example II]
[1]
  Specific surface area: 10.6 sq.m/g

## Ferric Citrate [Example IV]
[2]
  Intrinsic dissolution rate: 0.231 mg/sq.cm/min
[1]
  Specific surface area: 11.0 sq.m/g

## Ferric Citrate [Example I]
[1]
  Specific surface area: 12.36 sq.m/g

## Ferric Citrate [Example VII]
[1]
  Surface area of the sample: 20.0 sq.m/g
[1]; after repeating the same water and acetone process
  surface area: 12.5 sq.m/g

## Ferric Citrate [Example VI]
[1]
  Surface area of the sample: 10.3 sq.m/g

## Ferric Citrate [Example V]
[2]
  Intrinsic dissolution rate: 0.31 mg/sq.cm/min
[1]
  Specific surface area: 7.8 sq.m/g
